Experimental data reported in patent publication US9908919B2, “Cyclic apelin derivatives for the treatment of heart failure” (priority 2013, dated 2018).
Where a SMILES comes first, the peptide text is derived from it.

T1: human APJ receptor (hAPJ) (human, UniProt P35414 1-380)
T1 sequence (looked up): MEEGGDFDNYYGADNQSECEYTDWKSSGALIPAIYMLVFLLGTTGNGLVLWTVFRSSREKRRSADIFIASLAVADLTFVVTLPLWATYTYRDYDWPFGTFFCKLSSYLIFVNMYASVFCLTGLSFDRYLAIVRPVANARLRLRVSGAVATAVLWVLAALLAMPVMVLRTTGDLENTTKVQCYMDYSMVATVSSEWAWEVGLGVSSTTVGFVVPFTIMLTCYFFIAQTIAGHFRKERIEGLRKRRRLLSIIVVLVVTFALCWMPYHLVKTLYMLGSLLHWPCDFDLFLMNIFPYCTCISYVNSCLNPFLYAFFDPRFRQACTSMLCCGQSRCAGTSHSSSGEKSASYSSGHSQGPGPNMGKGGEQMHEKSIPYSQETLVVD


Assays:
[1] = in vitro; settings: rat, plasma
Procedure: The calcium flux protocol described above was followed, with the following changes. The peptides were also incubated with 5% rat plasma (Bioreclamation # [sequence]-M, Na Heparin-treated). Readings were taken at time points t0 and t24 hrs, after incubation in a 37° C. tissue culture incubator. Peptide plasma half-life in minutes was estimated by calculating the following: • 1) LN((EC50 at t0)/(EC50 at t24 hrs)), • 2) Calculate slope of value above and • 3) t112=0.693/(slope^2).

[2] = biological target: T1, human APJ receptor (hAPJ); assay: cell-based or functional assay

| half-life [1] | hAPJ Ca^2+ Flux EC50 [2] | Molecule |
| --- | --- | --- |
| 50 min | – | CC(C)C[C@H](NC(=O)[C@H](CCCNC(=N)N)NC(=O)[C@@H]1CCCN1C(=O)[C@H](CCCNC(=N)N)NC(=O)[C@@H]1CCC(=O)N1)C(=O)N[C@@H]1CSSC[C@@H](C(=O)N2CCC[C@H]2C(=O)N[C@H](Cc2ccccc2)C(=O)N[C@H](C)C(=O)N[C@H](Cc2ccccc2)C(=O)O)NC(=O)[C@H](CCCCN)NC(=O)[C@H](Cc2c[nH]cn2)NC1=O [Example 6, pE-R-P-R-L-c*-H-K-C*-P-f-a-f-OH] (HELM PEPTIDE1{[Glp].R.P.R.L.[dC].H.K.C.P.[dF].[dA].[dF]}$PEPTIDE1,PEPTIDE1,6:R3-9:R3$$$V2.0) |
| 16 min | – | CCCC[C@H](NC(=O)[C@@H]1CCCN1C(=O)[C@@H]1CSSC[C@H](NC(=O)[C@H](CC(C)C)NC(=O)[C@H](CCCNC(=N)N)NC(=O)[C@@H]2CCCN2C(=O)[C@H](CCCNC(=N)N)NC(=O)[C@@H]2CCC(=O)N2)C(=O)N[C@@H](Cc2c[nH]cn2)C(=O)N[C@@H](CCCCN)C(=O)N1)C(=O)N1CCC[C@H]1C(=O)N[C@@H](Cc1ccccc1)C(=O)O [Example 5, pE-R-P-R-L-C*-H-K-C*-P-Nle-P-F-OH] (HELM PEPTIDE1{[Glp].R.P.R.L.C.H.K.C.P.[Nle].P.F}$PEPTIDE1,PEPTIDE1,6:R3-9:R3$$$V2.0) |
| 52 min | – | CCCC[C@@H](NC(=O)[C@@H]1CCCN1C(=O)[C@@H]1CSSCC[C@@H](NC(=O)[C@H](CC(C)C)NC(=O)[C@H](CCCNC(=N)N)NC(=O)[C@@H]2CCCN2C(=O)[C@H](CCCNC(=N)N)NC(=O)[C@@H]2CCC(=O)N2)C(=O)N[C@@H](Cc2c[nH]cn2)C(=O)N[C@@H](CCCCN)C(=O)N1)C(=O)N1CCC[C@@H]1C(=O)N[C@H](Cc1ccccc1)C(=O)O [Example 7, pE-R-P-R-L-(D-hC)*-H-K-C*-P-(D-Nle)-p-f-OH] (HELM PEPTIDE1{[Glp].R.P.R.L.[O=C([C@@H](CCS[*:3])N[*:1])[*:2]].H.K.C.P.[CCCC[C@@H](N[*:1])C(=O)[*:2]].[dP].[dF]}$PEPTIDE1,PEPTIDE1,6:R3-9:R3$$$V2.0) |
| – | 43.7 nM | ERPRLCHKGPLPC (HELM PEPTIDE1{[Glp].R.P.R.L.C.H.K.G.P.[Nle].P.C}$PEPTIDE1,PEPTIDE1,6:R3-13:R3$$$V2.0; SMILES CCCC[C@@H]1NC(=O)[C@@H]2CCCN2C(=O)CNC(=O)[C@H](CCCCN)NC(=O)[C@H](Cc2c[nH]cn2)NC(=O)[C@@H](NC(=O)[C@H](CC(C)C)NC(=O)[C@H](CCCNC(=N)N)NC(=O)[C@@H]2CCCN2C(=O)[C@H](CCCNC(=N)N)NC(=O)[C@@H]2CCC(=O)N2)CSSC[C@@H](C(=O)O)NC(=O)[C@@H]2CCCN2C1=O) [Example 8: pE-R-P-R-L-C*-H-K-G-P-Nle-P-C*-OH] |
| – | 9.7 nM | ERPRLCHKCPLPF (HELM PEPTIDE1{[Glp].R.P.R.L.[O=C([C@@H](CCS[*:3])N[*:1])[*:2]].H.K.C.P.[CCCC[C@@H](N[*:1])C(=O)[*:2]].[dP].[dF]}$PEPTIDE1,PEPTIDE1,6:R3-9:R3$$$V2.0; SMILES CCCC[C@@H](NC(=O)[C@@H]1CCCN1C(=O)[C@@H]1CSSCC[C@@H](NC(=O)[C@H](CC(C)C)NC(=O)[C@H](CCCNC(=N)N)NC(=O)[C@@H]2CCCN2C(=O)[C@H](CCCNC(=N)N)NC(=O)[C@@H]2CCC(=O)N2)C(=O)N[C@@H](Cc2c[nH]cn2)C(=O)N[C@@H](CCCCN)C(=O)N1)C(=O)N1CCC[C@@H]1C(=O)N[C@H](Cc1ccccc1)C(=O)O) [Example 7: pE-R-P-R-L-(D-hC)*-H-K-C*-P-(D-Nle)-p-f-OH] |

Second part, the molecule before the results:

| Molecule | half-life [1] | hAPJ Ca^2+ Flux EC50 [2] |
| --- | --- | --- |
| CCCC[C@@H](NC(=O)[C@@H]1CCCN1C(=O)CNC(=O)[C@H](CCCCN)NC(=O)[C@H](Cc1c[nH]cn1)NC(=O)[C@@H]1CSSC[C@H](NC(=O)[C@H](CCCNC(=N)N)NC(=O)[C@@H]2CCC(=O)N2)C(=O)N[C@@H](CCCNC(=N)N)C(=O)N[C@@H](CC(C)C)C(=O)N1)C(=O)NCCc1ccccc1 [Example 3, pE-R-C*-R-L-C*-H-K-G-P-(D-Nle)-NH(Phenethyl)] (HELM PEPTIDE1{[Glp].R.C.R.L.C.H.K.G.P.[CCCC[C@@H](N[*:1])C(=O)[*:2]].[c1ccc(CCN[*:1])cc1]}$PEPTIDE1,PEPTIDE1,3:R3-6:R3$$$V2.0) | 1200 min | – |
| CCCC[C@H](NC(=O)[C@@H]1CCCN1C(=O)CNC(=O)[C@H](CCCCN)NC(=O)[C@H](Cc1c[nH]cn1)NC(=O)[C@@H]1CSSC[C@H](NC(=O)[C@H](CCCNC(=N)N)NC(=O)[C@@H]2CCC(=O)N2)C(=O)N[C@@H](CCCNC(=N)N)C(=O)N[C@@H](CC(C)C)C(=O)N1)C(=O)N1CCC[C@H]1C(=O)N[C@@H](Cc1ccccc1)C(=O)O [Example 1, pE-R-C*-R-L-C*-H-K-G-P-Nle-P-F-OH] (HELM PEPTIDE1{[Glp].R.C.R.L.C.H.K.G.P.[Nle].P.F}$PEPTIDE1,PEPTIDE1,3:R3-6:R3$$$V2.0) | 4 min | – |
| CC(C)C[C@@H]1NC(=O)[C@H](CCCNC(=N)N)NC(=O)[C@H](NC(=O)[C@H](CCCNC(=N)N)NC(=O)[C@@H]2CCC(=O)N2)CSSC[C@@H](C(=O)N[C@@H](Cc2c[nH]cn2)C(=O)N[C@@H](CCCCN)C(=O)NCC(=O)N2CCC[C@H]2C(=O)N[C@H](Cc2ccccc2)C(=O)N[C@H](C)C(=O)N[C@H](Cc2ccccc2)C(=O)O)NC1=O [Example 4, pE-R-c*-R-L-C*-H-K-G-P-f-a-f-OH] (HELM PEPTIDE1{[Glp].R.[dC].R.L.C.H.K.G.P.[dF].[dA].[dF]}$PEPTIDE1,PEPTIDE1,3:R3-6:R3$$$V2.0) | 86 min | – |
| CCCC[C@@H](NC(=O)[C@@H]1CCCN1C(=O)CNC(=O)[C@H](CCCCN)NC(=O)[C@H](Cc1c[nH]cn1)NC(=O)[C@@H]1CSSC[C@H](NC(=O)[C@H](CCCNC(=N)N)NC(=O)[C@@H]2CCC(=O)N2)C(=O)N[C@@H](CCCNC(=N)N)C(=O)N[C@@H](CC(C)C)C(=O)N1)C(=O)N[C@H](C)C(=O)N[C@H](Cc1ccccc1)C(=O)O [Example 2, pE-R-C*-R-L-C*-H-K-G-P-(D-Nle)-a-f-OH] (HELM PEPTIDE1{[Glp].R.C.R.L.C.H.K.G.P.[CCCC[C@@H](N[*:1])C(=O)[*:2]].[dA].[dF]}$PEPTIDE1,PEPTIDE1,3:R3-6:R3$$$V2.0) | 225 min | – |
